Assays:
[1] = set-up: method as in ref 14 = [14]; 14 Botsoglou N , Yannakopoulos AL , Fletouris DJ , Tserveni-Goussi AS , Fortomaris PD . Effect of dietary thyme on oxidative stability of egg yolk . J Agric Food Chem . 1997; 45 ( 10 ): 3711 – 6 .; conditions: cited from earlier work
quail = test system: quail; set-up: method as in PMID 28474397; conditions: THY6, 6.25 g of THY per kg of feed; cited from earlier work
[2] = test system: female Japanese quail (Coturnix japonica); assay: Liver histological analysis (histopathological index); assay type: in vivo
Source text: A total of 50 eighty-five days-old female quail of homogeneous body weights (251 ± 1 g; Mean ± SE) and in their egg-laying peak were selected from an initial group of 96 female individuals. All birds continued receiving a basal diet between 85 and 100 days of age and all variables (see below for details) were registered along this period (Pre-supplementation period, Fig 1). From 100 to 128 days of age (S period, Fig 1), females were randomly assigned to either a chronic dietary supplementation with one of 3 THY doses (THY2, THY4 and THY6; 10 females each) or to one of 2 control groups (basal diet, BASAL, and basal diet with vehicle solution, VEHICLE; 10 females each). Once finished the S period, half of the quail were slaughtered for histological analysis (n = 25; Slaughter 1, Fig 1) and the other half were subjected to a pS period of 21 days, during which all females received the BASAL diet (pS, Fig 1). After this period, the remaining 25 animals were also slaughtered for histological analysis (Slaughter 2, Fig 1). In this way, we assessed whether THY induced changes in variables indicative of tissue damage and if so, whether the potential damages could reverse after 3 weeks of supplement withdrawal.
At each slaughter point birds were euthanized by decapitation and livers were removed and stored in buffered formalin at 10%, processed routinely and stained with hematoxylin and eosin (H&E) and periodic acid-Schiff (PAS). Each slide was examined blinded, with a light microscope (Olympus X-785) and photographed with a digital camera (Moticam Camera 2300, 3 Megapixels). To evaluate histological alterations of liver, tissue was divided into 8 random equal areas to ensure there was no overlapping of the studied areas. For each area, the extension and number of each alteration were recorded with a microscope at 40X magnitude. Histopathological index of liver (HIliv) were estimated using a semi-quantitative protocol following, modified by our colleagues. Briefly, alterations were classified into four major reaction patterns each one of those including alterations that concern to different functional units of the liver or to the whole organ: RP1, circulatory disturbances (dilatation of sinusoids, vascular congestion, hemorrhage); RP2, regressive changes (steatosis or fatty degeneration, hydropic degeneration, nuclear alteration, fibrosis, necrosis); RP3, progressive changes (oval cells, cell hypertrophy and hyperplasia); and RP4, liver inflammation (leukocyte infiltration). Then, for each RP, an index was calculated based on two factors: the pathological importance of the lesions (importance factor, W) (range 1–3) and the extension of pathological change (score value, a) from 0 (unchanged) to 8 (extreme occurrence). Finally, a total liver histopathological index (HIliv) was calculated by adding the single RP liver indices of each individual quail. A greater value of (HIliv) reflects the most severely affected individual.

[3] = overall mean over control and 2, 4, 6.25 g thymol/kg feed diets and two slaughter batches
[4] = overall mean over control and 2, 4, 6.25 g thymol/kg feed diets and two slaughter batches, no effect of diet

effect on histopathological features of the liver ([2]; 2, 4, 6.25 g of THY/kg feed, 28 days S and 21 days pS): did not affect
HILiv.Rp3 (liver histopathological index, progressive changes) [2, 3]: 0,80
HILiv.Rp4 (liver histopathological index, inflammation) [2, 3]: 0,27
HILiv (total liver histopathological index) [2, 4]: 22,58
HILiv.Rp2 (liver histopathological index, regressive changes) [2, 4]: 16,80
Structure (SMILES): Cc1ccc(C(C)C)c(O)c1 [THY, 2 isopropyl-5-methylphenol]
concentration of THY needed to be added to a control yolk for antioxidant activity equivalent to a yolk from a thyme treated hen [1]: 278 ug of THY/g of yolk
PUFA and SFA in yolk total fatty acids and triglycerides of the quail fertile egg (quail): enhances PUFA deposition to the detriment of SFA

Reference: publication PMC6508865, “Dynamics of thymol dietary supplementation in quail (Coturnix japonica): Linking bioavailability, effects on egg yolk total fatty acids and performance traits” (PLoS ONE, 2019)
